In brackets after ≈: the same amount, converted by molar mass. Where two headings read alike, the source gives them in different places.
Key:
Pasteurella multocida = test: in vitro tube dilution test (MIC); assay type: cell-based; settings: tube dilution, read-out: MIC
Text: (§1) Our compound, 1-(2-hydroxyethyl)-3-nitro-4-pyrazolecarboxamide, has been extensively tested in vitro to determine the range of microorganisms against which it is active. The table of data below reports the minimum inhibitory concentration (MIC) at which the compound is effective in controlling a variety of microorganisms in a standard tube dilution test system. The MIC is reported as micrograms of compound per milliliter.
(§2) The other preferred compounds of our invention have also been thoroughly tested in the in vitro tube dilution test.
(§3) Other compounds of our invention have also been tested in the tube dilution test and shown to have in vitro activity against a number of microorganisms. The table below reports tests of a number of exemplary compounds against exemplary microorganisms. The compounds are identified by their numbers in the listing above. The data are reported as the MIC in micrograms per milliliter against the named exemplary microorganisms.

[1] = tested on: Salmonella heidelburg 1593; test: in vitro tube dilution test (MIC); assay type: cell-based; settings: Salmonella heidelburg 1593, tube dilution
Text: as §1, §2

Salmonella pullorum Ill. = test: in vitro tube dilution test (MIC); assay type: cell-based; settings: Salmonella enterica
Text: as §1, §2

[2] = tested on: Salmonella typhimurium 1335; test: in vitro tube dilution test (MIC); assay type: cell-based; settings: Salmonella enterica; Salmonella typhimurium 1335, tube dilution
Text: as §1, §2

Pseudomonas sp. = test: in vitro tube dilution test (MIC); assay type: cell-based
Text: as §1, §2

E. coli = test: Tests in mice, E. coli infection; assay type: in vivo
Method: (§4) Groups of laboratory mice were inoculatd with E. coli or with Streptococcus pyogenes. The 3-nitropyrazoles were administered in two different modes to the infected mice. In one group of tests, the compound was administered in two subcutaneous doses of 83 mg./kg. each, given 1 and 5 hours after the mice were inoculated with the organism. The mice were observed, and the results reported below as the number of days the treated mice survived the challenge.
(§5) In the other group of tests, the dose of each compound which allowed 50 percent of the treated mice to survive the challenge was determined. Again, the compound was administered in subcutane divided doses, 1 and 5 hours post-inoculation.

Salmonella dublin = test: in vitro tube dilution test (MIC); assay type: cell-based; settings: Salmonella enterica; Salmonella dublin, tube dilution; read-out: MIC
Text: as §2, §3

[3] = tested on: Staphylococcus aureus sp. 1130; test: in vitro tube dilution test (MIC); assay type: cell-based; settings: read-out: MIC
Text: as §2, §3

Vibrio coli 3811 = test: in vitro tube dilution test (MIC); assay type: cell-based; settings: Campylobacter coli; Vibrio coli 3811, tube dilution; read-out: MIC
Text: as §2, §3

Streptococcus pyogenes = test: Tests in mice, Streptococcus pyogenes infection; assay type: in vivo; settings: S. pyogenes, two subcutaneous doses of 83 mg./kg., 1 and 5 hours
Method: as §4, §5

Salmonella typhimurium = test: Salmonellosis in chickens, single injection to day-old chicks; assay type: in vivo; settings: Salmonella enterica, TYPHIMURIUM, 168 h; single injection of 60 mg./kg.; seven days; read-out: Survival (converted)
Method: A number of our 3-nitropyrazoles have been tested against an induced infection of Salmonella typhimurium in day-old chicks. The test was conducted by administering a single injection of 60 mg./kg. of the compounds to each of five chicks. The following day, the chicks were challenged by the subcutaneous injection of a dispersion of S. typhimurium organisms sufficient to kill most or all of the untreated control chicks.
Some of the compounds were tested more than once, in which instances the data are reported as the total survivors from the multiple treatment groups. Untreated, challenged control groups of chicks were tested together with each batch of groups of chicks to which test compounds were administered. Since the mortality of the untreated control chicks varied somewhat from one group of tests to another, results of the untreated control groups are reported below with each test.

[4] = tested on: Mycoplasma gallisepticum 38502; test: in vitro tube dilution test (MIC); assay type: cell-based; settings: Mycoplasmoides gallisepticum; Mycoplasma gallisepticum 38502, tube dilution
Text: as §2

[5] = tested on: Staphylococcus aureus 3055; test: in vitro tube dilution test (MIC); assay type: cell-based; settings: Staphylococcus aureus 3055, tube dilution
Text: as §2

Streptococcus sp. 80 = test: in vitro tube dilution test (MIC); assay type: cell-based; settings: Streptococcus sp. 80, tube dilution; read-out: MIC
Text: as §3

Escherichia coli = test: in vitro tube dilution test (MIC); assay type: cell-based; settings: tube dilution, read-out: MIC
Text: as §1, §3

Mycoplasma gallisepticum = test: in vitro tube dilution test (MIC); assay type: cell-based; settings: Mycoplasmoides gallisepticum; Mycoplasma gallisepticum, tube dilution; read-out: MIC
Text: as §1, §3

H. meleagridis = test: Blackhead in poultry, chicks; assay type: in vivo
Method: One- to three-week-old chicks and turkey poults were obtained from homogeneous source flocks and allocated into treatment groups. Some groups were held as infected, untreated controls, and other groups were treated with 3-nitropyrazoles by administering the compounds in the birds' feed. Various concentrations of the pyrazoles were administered to determine the least concentration which protected the birds. A few days after the administration of medicated feed began, all of the birds were challenged by rectally administering a suspension of at least 5,000 H. meleagridis protozoa per chick. The challenge organisms had been originally obtained from infected chickens, and were grown in vitro to provide a supply of organisms for testing.
The birds were held for about seven days after the challenge was administered, during which time the administration of pyrazole-medicated feed was continued. Then all of the chicks, including the untreated, infected controls, were sacrificed and necropsied. The cecum and the liver of each bird were examined for characteristic H. meleagridis lesions.
For each compound, the lowest feed concentration which gave an active response is indicated. While feed consumption data were not taken during the tests, the birds ate at such a rate that a feed concentration of 0.02 percent is equivalent to a treatment rate of about 10 mg./kg./day.

Mycoplasma synoviae = test: in vitro tube dilution test (MIC); assay type: cell-based; settings: Mycoplasmopsis synoviae, footnote 1: M. synoviae
Text: as §1, §3

E. amylovora = test: Fire blight of apple, induced infection of McIntosh apple seedlings; assay type: in vivo; settings: 6 days, scale 1 (symptoms in main stem) to 4 (complete control)
Text: A typical test of one of our compounds against an induced E. amylovora infection of McIntosh apple seedlings will be reported. The compound, [2-(4-carbamoyl-3-nitropyrazol-1-yl)ethyl] phenyl carbonate, was sprayed on the seedlings as an aqueous dispersion at the concentrations shown below. Four replicate trees were used per treatment. After the spray had dried, each tree was challenged by punching a hole through the midvein at the tip of one leaf per plant, and placing a drop of an E. amylovora culture in the hole.
After 6 days, the trees were observed, and the control of the infection was rated on the following scale.
1 = disease symptoms in main stem
2 = disease symptoms in petiole
3 = disease symptoms in the leaf only
4 = complete control of disease
The results are shown below as the mean disease control rating.

[6] = tested on: mycoplasma which causes aster yellows; test: Aster yellows disease test; assay type: in vivo, aster plants; settings: 20 days
Text: The following data report a test of an exemplary compound against aster yellows disease. The compound, [2-(4-carbamoyl-3-nitropyrazol-1-yl)ethyl] phenyl carbonate, was applied to aster plants as an aqueous dispersion at concentrations shown below. Two plants were sprayed with each concentration. Each pair of plants was placed in a wire mesh cage, and four leafhoppers infected with the mycoplasma which causes aster yellows were placed in each cage. After 20 days, the plants were observed and disease control was rated as the percent of the plants' surface affected by the disease.

[7] = Staphylococcus aureus sp. 1130, tube dilution

Row | SMILES | MIC (Pasteurella multocida) [µg/mL] | MIC (Salmonella dublin) [µg/mL] | MIC (Vibrio coli 3811) [µg/mL] | MIC (Streptococcus sp. 80) [µg/mL] | MIC (Escherichia coli) [µg/mL] | MIC (Mycoplasma gallisepticum) [µg/mL] | MIC [3, 7] [µg/mL] | responders at 60 mg/kg (Salmonella typhimurium) [%] | Active Level (lowest feed concentration which gave an active response) (H. meleagridis) | other results
1 | CNC(=O)c1cn(CCO)nc1[N+](=O)[O-] [Compound 58, 1-(2-hydroxyethyl)-N-methyl-3-nitro-4-pyrazolecarboxamide] | 0.78 (≈ 3.64 µM) | 12.5 (≈ 58.4 µM) | 25 (≈ 117 µM) | – | – | – | – | 90 | – | MIC [1]: 12.5 µg/mL (≈ 58.4 µM); MIC (Salmonella pullorum Ill.): 3.12 µg/mL (≈ 14.6 µM); MIC [2]: 12.5 µg/mL (≈ 58.4 µM); MIC (Pseudomonas sp.): 25 µg/mL (≈ 117 µM); ED50 (E. coli; Escherichia coli, sc, subcutaneous, 1 and 5 hours post-inoculation): 40 mg/kg; Days Survived (E. coli; two subcutaneous doses of 83 mg./kg., 1 and 5 hours): 7.0 days; MIC ([3]; Staphylococcus aureus, SP.1130, Staphyloccocus 1130, tube dilution): 12.5 µg/mL (≈ 58.4 µM); Days Survived (Streptococcus pyogenes): 1.8 days; MIC [4]: 6.25 µg/mL (≈ 29.2 µM); MIC [5]: 10 µg/mL (≈ 46.7 µM)
2 | COCCn1cc(C(N)=O)c([N+](=O)[O-])n1 [Compound 65, 1-(2-methoxyethyl)-3-nitro-4-pyrazolecarboxamide] | 50 (≈ 233 µM) | 12.5 (≈ 58.4 µM) | 50 (≈ 233 µM) | > 50 | 12.5 (≈ 58.4 µM) | 50 (≈ 233 µM) | 50 (≈ 233 µM) | 70 | .02% | –
3 | NC(=O)c1cn(CCOC(=O)Oc2ccccc2)nc1[N+](=O)[O-] [Compound 77, [2-(4-carbamoyl-3-nitropyrazol-1-yl)ethyl] phenyl carbonate] | – | – | – | – | – | – | – | 80 | .02% | mean disease control rating (E. amylovora; 200 ppm.): 2.5; mean disease control rating (E. amylovora; 400 ppm.): 3.5; mean disease control rating (E. amylovora; 600 ppm.): 3.0; mean disease control rating (E. amylovora; 800 ppm.): 3.4; mean disease control rating (E. amylovora; 1000 ppm.): 3.5; mean disease control rating (E. amylovora; 1200 ppm.): 3.5; Percent Infection (percent of plants' surface affected) ([6]; Concentration 200 (unit not given)): 0%; Percent Infection (percent of plants' surface affected) ([6]; Concentration 400 (unit not given)): 25%; Percent Infection (percent of plants' surface affected) ([6]; Concentration 800 (unit not given)): 0%

Further lines, with some results ahead:

Row | MIC (Pasteurella multocida) [µg/mL] | MIC (Salmonella dublin) [µg/mL] | MIC (Vibrio coli 3811) [µg/mL] | MIC (Streptococcus sp. 80) [µg/mL] | MIC (Escherichia coli) [µg/mL] | MIC (Mycoplasma gallisepticum) [µg/mL] | MIC [3, 7] [µg/mL] | SMILES | responders at 60 mg/kg (Salmonella typhimurium) [%] | Active Level (lowest feed concentration which gave an active response) (H. meleagridis) | other results
4 | > 50 | > 50 | > 50 | > 50 | > 50 | – | > 50 | COC(=O)c1cn(CCO)nc1[N+](=O)[O-] [Compound 71, methyl 1-(2-hydroxyethyl)-3-nitro-4-pyrazolecarboxylate] | – | – | MIC (Mycoplasma synoviae): 0.39 µg/mL (≈ 1.81 µM)
5 | 25 (≈ 119 µM) | 50 (≈ 238 µM) | 50 (≈ 238 µM) | > 50 | 50 (≈ 238 µM) | > 50 | 50 (≈ 238 µM) | NC(=O)c1cn(CC2CC2)nc1[N+](=O)[O-] [Compound 90, 1-cyclopropylmethyl-3-nitro-4-pyrazolecarboxamide] | 80 | .02% | –

From patent publication US4145554A, “3-Nitropyrazole derivatives” (Eli Lilly and Company, priority 1977, dated 1979)
